Data: patent US11292788B2, “IL-17 and IFN-gamma inhibition for the treatment of autoimmune diseases and chronic inflammation” (Immunic AG, priority 2017, dated 2022)
Like-named read-outs stand apart in the source and are kept apart here.

Legend:
INF-γ = assay: Cytokine assay: INF-γ production by human PBMC stimulated with PHA; type: cell-based; conditions: Homo sapiens, PBMC, IC50 class, read-out: IFN-gamma Inhib.
Procedure, shortened: (§1)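 Human donor PBMC (1×10^5 cells/well) were activated with 2 μg/ml PHA and exposed to compounds for 48 h. Supernatant IL-17A, IL-17F and IFN-γ were measured by Luminex or ELISA. Screening used 10, 1, 0.1 and 0.01 μM; IC50 values came from semilogarithmic titrations.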

IL-17F = assay: Cytokine assay: IL-17F production by human PBMC stimulated with PHA; type: cell-based; conditions: Homo sapiens, PBMC, IC50 class, read-out: IL-17F Inhib.
Procedure, shortened: as §1

IL-17A = assay: Cytokine assay: IL-17A production by human PBMC stimulated with PHA; type: cell-based; conditions: Homo sapiens, PBMC, IC50 class, read-out: IL-17A Inhib.
Procedure, shortened: as §1

[1] = Microsomal stability: incubation with human liver microsomes, residual parent compound by HPLC-MS/MS; type: in vitro ADME; conditions: up to 60 min, read-out: t1/2 hLM
Protocol: Metabolic stability of compounds of the present invention was determined by incubation with human liver microsomes and subsequent determination of residual amount of the respective compound (“parent compound”) by HPLC-MS/MS.
In order to achieve this, in a final reaction volume of 1000 μl, each compound was incubated at a final concentration of 1 μM with 0.5 mg/ml human liver microsomes (HLM Pool 50 Donors, 20 mg/ml, BD Gentest, #452156, LotNr 88114) in 0.1 M Potassium phosphate buffer at pH 7.4, with a cofactor in form of a NADPH regenerating system (Promega, #V9510) according to the manufacturers' specifications. The final DMSO concentration in each sample was 0.4%. The incubation was performed at 37° C. under shaking conditions (Thermomixer, 1400 rpm) for different time intervals up to 60 min. To stop the reaction, for each time point 200 μl of the reaction were taken out and 200 μl ice-cold acetonitrile was added. Then, the samples were centrifuged (4° C., 14000*g for 15 min). The supernatant was analyzed for residual parent compound concentration and scanned for metabolites using HPLC-MS/MS. By using optimized MS methods for each compound, the peak area under curve for the compound specific signal is determined. The change of the peak areas over the assay time of 60 min resemble the remaining parent compound in % of T0. By these points, a balancing line was set. The half-time, as well as the clearance, can then be calculated on the basis of the slope.

[2] = human liver microsomes 0.5 mg/ml, compound 1 μM, pH 7.4, 37° C.
[3] = pH 7.4, human liver microsomes, 1 μM compound, 0.5 mg/ml HLM, 37° C.

Row | Compound | IC50 (INF-γ) | IC50 (IL-17F) | IC50 (IL-17A) | half-life at 1 μM [1, 2] | half-life at 1 μM [1, 3]
1 | Cc1c(-c2onc(-c3c(F)cccc3Cl)c2C(=O)OC2CC2)cnn1[C@H]1C[C@@](C)(O)C1 [Example 61, cyclopropyl 3-(2-chloro-6-fluorophenyl)-5-{5-methyl-1-[3-hydroxy-3-methylcyclobutyl]-1H-pyrazol-4-yl}-1,2-oxazole-4-carboxylate] | < 50 nM | < 50 nM | < 50 nM | 40 to 100 min | 
2 | COCc1c(-c2c(F)cccc2Cl)noc1-c1cnn([C@H]2C[C@@](C)(O)C2)c1C(F)(F)F [Example 69, 3-(4-(3-(2-chloro-6-fluorophenyl)-4-(methoxymethyl)isoxazol-5-yl)-5-(trifluoromethyl)-1H-pyrazol-1-yl)-1-methylcyclobutan-1-ol] | < 50 nM | 50 to 500 nM | 50 to 500 nM | > 100 min | 
3 | C[C@@H](O)Cn1ncc(-c2onc(-c3c(F)cccc3Cl)c2COC2CC2)c1C(F)(F)F [Example 85, (2R)-1-(4-(3-(2-chloro-6-fluorophenyl)-4-(cyclopropoxymethyl)isoxazol-5-yl)-5-(trifluoromethyl)-1H-pyrazol-1-yl)propan-2-ol] | < 50 nM | < 50 nM | < 50 nM | 10 to 40 min | 
4 | C[C@]1(O)C[C@@H](n2ncc(-c3onc(-c4c(F)cccc4Cl)c3COC3CC3)c2C(F)(F)F)C1 [Example 86, 3-(4-(3-(2-chloro-6-fluorophenyl)-4-(cyclopropoxymethyl)isoxazol-5-yl)-5-(trifluoromethyl)-1H-pyrazol-1-yl)-1-methylcyclobutan-1-ol] | < 50 nM | < 50 nM | < 50 nM | > 100 min | 
5 | C[C@]1(O)C[C@@H](n2ncc(-c3onc(-c4cccc(OCCN5CCOCC5)c4Cl)c3COC3CC3)c2C(F)(F)F)C1 [Example 92, 3-(4-(3-(2-chloro-3-(2-morpholinoethoxy)phenyl)-4-(cyclopropoxymethyl)isoxazol-5-yl)-5-(trifluoromethyl)-1H-pyrazol-1-yl)-1-methylcyclobutan-1-ol] | < 50 nM | < 50 nM | < 50 nM |  | 2 to 9.99 min
6 | C[C@@H](O)Cn1ncc(-c2onc(-c3c(F)cccc3Cl)c2-c2ncccn2)c1C(F)(F)F [Example 97, (R)-1-(4-(3-(2-chloro-6-fluorophenyl)-4-(pyrimidin-2-yl)isoxazol-5-yl)-5-(trifluoromethyl)-1H-pyrazol-1-yl)propan-2-ol] | < 50 nM | < 50 nM | < 50 nM |  | 40 to 100 min
7 | C[C@]1(O)C[C@@H](n2ncc(-c3onc(-c4c(F)cccc4Cl)c3-c3ncccn3)c2C(F)(F)F)C1 [Example 98, 3-(4-(3-(2-chloro-6-fluorophenyl)-4-(pyrimidin-2-yl)isoxazol-5-yl)-5-(trifluoromethyl)-1H-pyrazol-1-yl)-1-methylcyclobutanol] | < 50 nM | < 50 nM | < 50 nM |  | > 100 min
8 | C[C@]1(O)C[C@@H](n2ncc(-c3onc(-c4c(F)cccc4Cl)c3-c3cnccn3)c2C(F)(F)F)C1 [Example 100, 3-{4-[3-(2-chloro-6-fluorophenyl)-4-(pyrazin-2-yl)-1,2-oxazol-5-yl]-5-(trifluoromethyl)-1H-pyrazol-1-yl}-1-methylcyclobutan-1-ol] | < 50 nM | < 50 nM | 50 to 500 nM |  | > 100 min
9 | COc1cccc(-c2noc(-c3cnn([C@H]4C[C@@](C)(O)C4)c3C(F)(F)F)c2-c2ncccn2)c1Cl [Example 103, 3-{4-[3-(2-chloro-3-methoxyphenyl)-4-(pyrimidin-2-yl)-1,2-oxazol-5-yl]-5-(trifluoromethyl)-1H-pyrazol-1-yl}-1-methylcyclobutan-1-ol] | < 50 nM | < 50 nM | < 50 nM |  | > 100 min
10 | CC(C)(O)Cn1ncc(-c2onc(-c3c(F)cccc3Cl)c2-c2ncccn2)c1C(F)(F)F [Example 118, 1-{4-[3-(2-chloro-6-fluorophenyl)-4-(pyrimidin-2-yl)-1,2-oxazol-5-yl]-5-(trifluoromethyl)-1H-pyrazol-1-yl}-2-methylpropan-2-ol] | < 50 nM | < 50 nM | < 50 nM |  | > 100 min
11 | CC(C)(O)CCn1ncc(-c2onc(-c3cccc(OCCN4CC5(COC5)C4)c3Cl)c2-c2ncccn2)c1C(F)(F)F [Example 139, 4-(4-{3-[2-chloro-3-(2-{2-oxa-6-azaspiro[3.3]heptan-6-yl}ethoxy)phenyl]-4-(pyrimidin-2-yl)-1,2-oxazol-5-yl}-5-(trifluoromethyl)-1H-pyrazol-1-yl)-2-methylbutan-2-ol] | 50 to 500 nM | < 50 nM | < 50 nM |  | 10 to 40 min

Results, then the compound that gave them:

Row | IC50 (INF-γ) | IC50 (IL-17F) | IC50 (IL-17A) | half-life at 1 μM [1, 2] | half-life at 1 μM [1, 3] | Compound
12 | < 50 nM | 50 to 500 nM | < 50 nM |  | > 100 min | COc1cccc(-c2noc(-c3cnn(CCC(C)(C)O)c3C(F)(F)F)c2-c2ncccn2)c1Cl [Example 121, 4-{4-[3-(2-chloro-3-methoxyphenyl)-4-(pyrimidin-2-yl)-1,2-oxazol-5-yl]-5-(trifluoromethyl)-1H-pyrazol-1-yl}-2-methylbutan-2-ol]
13 | < 50 nM | < 50 nM | < 50 nM |  | > 100 min | COc1cccc(-c2noc(-c3cnn(CCC(C)(C)O)c3C)c2-c2ncccn2)c1Cl [Example 124, 4-{4-[3-(2-chloro-3-methoxyphenyl)-4-(pyrimidin-2-yl)-1,2-oxazol-5-yl]-5-methyl-1H-pyrazol-1-yl}-2-methylbutan-2-ol]
14 | < 50 nM | < 50 nM | 50 to 500 nM |  | > 100 min | COc1ccc(Cl)c(-c2noc(-c3cnn(CCC(C)(C)O)c3C)c2-c2ncccn2)c1Cl [Example 125, 4-{4-[3-(2,6-dichloro-3-methoxyphenyl)-4-(pyrimidin-2-yl)-1,2-oxazol-5-yl]-5-methyl-1H-pyrazol-1-yl}-2-methylbutan-2-ol]
15 | < 50 nM | 50 to 500 nM | 50 to 500 nM |  | > 100 min | Cc1c(-c2onc(-c3c(F)cccc3Cl)c2-c2ncccn2)cnn1CCC(C)(C)O [Example 127, 4-{4-[3-(2-chloro-6-fluorophenyl)-4-(pyrimidin-2-yl)-1,2-oxazol-5-yl]-5-methyl-1H-pyrazol-1-yl}-2-methylbutan-2-ol]
16 | < 50 nM | < 50 nM | < 50 nM |  | 2 to 9.99 min | CC(C)(O)CCn1ncc(-c2onc(-c3cccc(OCCN4CCOCC4)c3Cl)c2-c2ncccn2)c1C(F)(F)F [Example 133, 4-[4-(3-{2-chloro-3-[2-(morpholin-4-yl)ethoxy]phenyl}-4-(pyrimidin-2-yl)-1,2-oxazol-5-yl)-5-(trifluoromethyl)-1H-pyrazol-1-yl]-2-methylbutan-2-ol]
17 | 50 to 500 nM | 50 to 500 nM | < 50 nM |  | > 100 min | CN(C)CCOc1cccc(-c2noc(-c3cnn(CCC(C)(C)O)c3C(F)(F)F)c2-c2ncccn2)c1Cl [Example 134, 4-[4-(3-{2-chloro-3-[2-(dimethylamino)ethoxy]phenyl}-4-(pyrimidin-2-yl)-1,2-oxazol-5-yl)-5-(trifluoromethyl)-1H-pyrazol-1-yl]-2-methylbutan-2-ol]
18 | < 50 nM | 50 to 500 nM | 50 to 500 nM |  | 40 to 100 min | CC(C)(O)CCn1ncc(-c2onc(-c3cccc(OCCN4CCCC4)c3Cl)c2-c2ncccn2)c1C(F)(F)F [Example 135, 4-[4-(3-{2-chloro-3-[2-(pyrrolidin-1-yl)ethoxy]phenyl}-4-(pyrimidin-2-yl)-1,2-oxazol-5-yl)-5-(trifluoromethyl)-1H-pyrazol-1-yl]-2-methylbutan-2-ol]
19 | 50 to 500 nM | 50 to 500 nM | 50 to 500 nM |  | 10 to 40 min | CCN(CC)CCOc1cccc(-c2noc(-c3cnn(CCC(C)(C)O)c3C(F)(F)F)c2-c2ncccn2)c1Cl [Example 137, 4-[4-(3-{2-chloro-3-[2-(diethylamino)ethoxy]phenyl}-4-(pyrimidin-2-yl)-1,2-oxazol-5-yl)-5-(trifluoromethyl)-1H-pyrazol-1-yl]-2-methylbutan-2-ol]
20 | 50 to 500 nM | < 50 nM | < 50 nM |  | 2 to 9.99 min | CC(C)(O)CCn1ncc(-c2onc(-c3cccc(OCCN4CCS(=O)(=O)CC4)c3Cl)c2-c2ncccn2)c1C(F)(F)F [Example 138, 4-[2-(2-chloro-3-{5-[1-(3-hydroxy-3-methylbutyl)-5-(trifluoromethyl)-1H-pyrazol-4-yl]-4-(pyrimidin-2-yl)-1,2-oxazol-3-yl}phenoxy)ethyl]-thiomorpholine-1,1-dione]
